pEC50: −log10 of the molar value.
What was measured:
Homo sapiens [1] = test: In vivo inhibition of BACE1 in human assessed as reduction in amyloidbeta level at 40 mg administered once daily relative to control; assay type: functional
Canis familiaris [2] = test: In vivo inhibition of BACE1 in po dosed Beagle dog assessed as plasma level causing 50% reduction in amyloidbeta42 level in CSF administered as single dose measured after 4 to 49 hrs; assay type: functional, organism-based; details: Canis lupus familiaris
Homo sapiens [3] = test: In vivo inhibition of BACE1 in human assessed as reduction in amyloidbeta level at 75 mg administered once daily relative to control; assay type: functional
Canis familiaris [4] = organism: Canis familiaris; test: animal or person; assay type: functional, organism-based; details: Canis lupus familiaris, Beagle

| pEC50 (Canis familiaris [2]) | pEC50 (Canis familiaris [4]) | Compound | inhibition (INH) (Homo sapiens [1]) [%] | inhibition (INH) (Homo sapiens [3]) [%] |
| --- | --- | --- | --- | --- |
| 7.47 | – | CN1C(N)=N[C@](C)(c2cc(NC(=O)c3ccc(F)cn3)ccc2F)CS1(=O)=O [VERUBECESTAT] | 80 | – |
| 7.66 | 8.09 | C[C@H]1OC[C@]2(c3cc(NC(=O)c4cnc(C(F)F)cn4)ccc3F)N=C(N)SC[C@H]12 [ELENBECESTAT] | – | 80 |

Reference: ChEMBL document CHEMBL4321815, “Discovery of an Extremely Potent Thiazine-Based β-Secretase Inhibitor with Reduced Cardiovascular and Liver Toxicity at a Low Projected Human Dose” (J Med Chem, 2019)
